How the values were obtained:
[1] = tested on: αB-crystallin (αBC); assay: Crystallin levels in solubilized human lens proteins (Western blot), αBC; type: biochemical; conditions: 500 μM, solubilized proteins of three human lenses; not significant
Protocol: The contents of crystalline proteins [αA-crystallin (αAC), αB-crystallin (αBC), β-crystallin (βC), and γ-crystallin (γC)] in the solubilized proteins of three human lenses treated with either Aggrelyte-2 or Aggrelyte-2C (500 μM) from Example 4 were determined by Western blot analysis as described for Example 5. Membranes were incubated with antibodies against αAC (1:14,000 dilution; Enzo Life Sciences, Catalog #ADI-SPA-221D), αBC (1:700,000 dilution; University of Iowa), βC (1:14,000 dilution; Santa Cruz Biotechnology, Catalog #sc-22745), and γC (1:7,000 dilution; Santa Cruz Biotechnology, Catalog #sc-22746). The secondary antibodies were HRP-conjugated anti-mouse IgG for αBC and HRP-conjugated […] (Cell Signaling Technology, Catalog #7074S) for αAC, βC, and γC. According to the supplier, the […] detects mostly βB1-crystallin and, to a lesser extent, βA1/3, βA2, βA4, βB2, and βB3-crystallin. The γC antibody reacts with γA, γB, γC, γD, γE, and γF-crystallin.

[2] = tested on: mouse lenses; assay: Acetylated proteins in ex vivo treated mouse lenses (Western blot, Example 19); conditions: 1 mM, 24 hours
Protocol: The lenses from Example 18 were homogenized using N2-bubbled 50 mM phosphate buffer, pH 7.4 (0.4 mL per lens), in a hand-held motorized homogenizer. The homogenate was centrifuged at 20,000×g for 20 minutes at 4° C. The resulting supernatant was collected, and its protein content was measured using BCA Protein Assay Kit using BSA as the standard. The soluble protein was subjected to 12% SDS-PAGE under denaturing conditions and the proteins were electrophoretically transferred to a nitrocellulose membrane and blocked with 5% nonfat dry milk. The membrane was then incubated with a monoclonal antibody against N-acetyllysine (AcK antibody @ 1:5,000 dilution; Cell Signaling Technology Catalog #9681S) for 16 hours, followed by horseradish peroxidase (HRP)-conjugated goat anti-mouse IgG (1:5,000 dilution; Cell Signaling Technology Catalog #7076S) for 1 hour. Chemiluminescence was detected using the Enhanced Chemiluminescence Detection Kit. The membrane was stained with Ponceau-S to visualize the proteins and normalize acetyllysine (AcK)-bearing protein to total protein load.

[3] = molecular target: T1, human lens cortical proteins (Homo sapiens, UniProt P32320); assay: Identification of AcK sites in proteins of Aggrelyte-2-treated lens (AcK peptide enrichment, LC-MS/MS); conditions: Cytidine deaminase K51
T1 construct: from tissue; host or cells: cortex of a human lens from a donor, treated ex vivo
Protocol: The AcK modification sites and relative levels at those sites in the Aggrelyte-2-treated and untreated (control) human lens cortical proteins were evaluated in the lens (from a donor) that had the largest overall AcK differential measured by Western blot analysis (blot not shown; densitometric summary in FIG. 14B) and LC-MS/MS (FIG. 15B). Each sample (315 μg) was spiked with 200 ng of acetylated bovine serum albumin (AcBSA) protein standard, reduced, alkylated, and digested with trypsin using a urea-based method and then desalted using a C18 resin before being lyophilized. The samples were then immunoprecipitated according to the manufacturer's protocol for the PTMScan Acetyl-Lysine Motif Kit No. 13416 (Cell Signaling Technology). Peptides were purified with a Pierce C18 spin column (Thermo Fisher Scientific) and dried in a Speed Vac concentrator at 45° C. The peptides were resuspended in 3% acetonitrile in 0.1% formic acid for MS analysis.
The enriched AcK-bearing peptides were loaded onto a 2 cm PepMap 100 nanoviper trapping column and chromatographically resolved with a 0.075×250 mm, […] Acclaim PepMap RSLC reversed-phase nanocolumn (Thermo Scientific) using a 1290 Infinity II LC system equipped with a nanoadapter (Agilent). The mobile phase consisted of water+0.1% formic acid (A) and 90% aqueous acetonitrile+0.1% formic acid (B). Samples were loaded onto the trapping column at 3.0 μL/min for 3.5 min under initial conditions before being chromatographically separated at an effective flow rate of 330 nL/min using a gradient of 3-8% B over 3 min, 8-30% B over 33 min, and 30-40% B over 4 min at 40° C. The gradient was followed by a column wash at 75% B for 5 min. Data were collected using a 6550 Q-TOF equipped with a nanosource (Agilent Technologies) operated using intensity-dependent CID MS/MS to generate peptide identifications. MS/MS data were collected in positive ion polarity over a mass range of 290-1700 m/z at a scan rate of 8 spectra/second for MS scans and a mass range of 50-1700 m/z at a scan rate of 3 spectra/second for MS/MS scans. All charge states, except singly charged species, were allowed during MS/MS acquisition.
Tandem mass spectra were extracted, searched, and summarized using PEAKS X+ Studio 10.5 software (Bioinformatics Solutions Inc., Waterloo, Ontario). The spectra were searched against the UniProtKB SwissProt [2022_02] Homo sapiens database, allowing for up to three missed semitryptic cleavages with fixed carbamidomethylation of cysteine and a maximum of four variable modifications of deamidation of asparagine and glutamine, oxidation of methionine and/or acetylation of lysine per peptide. The allowed monoisotopic peptide mass tolerance was ±15.0 ppm, and the MS/MS tolerance was ±0.05 da. A false discovery rate (FDR) filter of 0.5% was used corresponding to a −10 log P score ≥19.3.
The MS-only level data from the LC-MS/MS analyses were extracted and aligned using Profinder V.B.10.01 software (Agilent Technologies). Retention times, neutral masses, and chemical formulas generated from identified acetyl peptides were used to perform batch-targeted feature extraction. Data were extracted with an ion count threshold of two or more ions, 5000 counts, and a score threshold of 70. The score was based on the quality of the mass accuracy, isotope abundances, and isotope spacing of compounds based on the chemical formula of the target peptides within a specified retention time window. Using the peptide isotope model, charge states 2-6 were allowed with H^+ and Na^+ charge carriers. The retention time window and mass window alignment tolerances were set to 0.4 min and 10 ppm, respectively. The extracted peptide peak areas were then used to determine a fold change value in the treated vs. control samples to help identify potential AcK sites that may be affected by aggrelyte-2. Due to a lack of statistical power, a three-fold change filter was used as a sufficient cutoff to identify potential AcK sites of interest. […]

T1 sequence (P32320 whole entry): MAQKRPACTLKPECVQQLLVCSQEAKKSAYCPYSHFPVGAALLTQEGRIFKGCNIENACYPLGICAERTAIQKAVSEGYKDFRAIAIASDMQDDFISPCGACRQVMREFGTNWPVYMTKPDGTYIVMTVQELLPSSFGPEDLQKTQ

Fold Change (Aggrelyte-2 vs Control) [Total Sum] [3]: 3.66 | Aggrelyte-2 treated Area ([3]; lens of donor): 7.26E+05
Compound: COC(=O)[C@H](CSC(C)=O)NC(C)=O [Aggrelyte-2, N,S-diacetyl-L-cysteine methyl ester]
levels of αBC, fold higher than in the Aggrelyte-2C-treated samples [1]: 1.1 fold | levels of αBC, fold higher than in the Controls [1]: 1.2 fold | density of acetyl-bearing proteins, fold increase compared to untreated control lenses [2]: 2 fold

From US12350250B2, “Aggrelytes for treating ocular conditions” (The Regents of the University of Colorado, a Body Corporate, priority 2022, dated 2025)
